# Experiment: small volume in vitro release test in 50 ml 0.1N HCl
# Format: physicochemical
# Conditions: 37° C, 150 rpm
# Protocol: The formulations were tested for their small volume in vitro release characteristics in 50 ml 0.1N HCl at 37° C and 150 rpm using the following procedure:
# • a. Automated Dissolution System comprising: • Hanson SR8 Plus Test Station • Hanson Auto Plus Maximiser System Controller • Hanson Auto Plus MultiFill Fraction Collector • b. HPLC System comprising: • pump - Merck Hitachi L-7100 • autoinjector - Merck Hitachi L-7200 • column oven - Merck Hitachi L-7300 • detector - Merck Hitachi L-7400 • interface and integration software - Merck Hitachi D-7000
# Place one weighed capsule in each vessel containing 0.1N HCl and immediately operate the apparatus for 30 min. Unless otherwise specified, 3 ml samples are withdrawn from each vessel and immediately filtered through PTFE membranes at 15 and 30 min.
# The small volume was chosen as a model of the conditions in a fasted stomach.
smiles,measurement,setting,value
"CC(C)OC(=O)C(C)(C)Oc1ccc(C(=O)c2ccc(Cl)cc2)cc1 [Micronized Fenofibrate, 2-[4-(4-chlorobenzoyl)phenoxy]-2-methyl-propanoic acid, 1-methylethyl ester]",% dissolved 15 min,15 min,0%
same,% dissolved 30 min,30 min,0%

# Reference: patent publication EP1707197A1 (TEVA PHARMACEUTICAL INDUSTRIES LTD., priority 2005, dated 2006)
